Results published in patent EP2706123A1, “In vitro method for determining genotoxic and non-genotoxic carcinogenicity of a compound” (Rijksinstituut Voor Volksgezondheid En Milieu, priority 2012, dated 2014).
Where “and” joins values, the source holds several entries; their conditions need not be identical. Equal entries are not always repeated.

Key:
[1] = tested on: Nup62; test: Expression level of marker gene Nup62 in liver of mice exposed for 7 days (microarray); conditions: mouse liver, 7 days exposure; for Average Fold Changes of the expression level of marker gene Nup62: average of 3 - 4 independent repeat experiments, negative value = underexpression (negative inverse of Ratio), dose and route per compound in Table 8; for Fold Change of expression of Nup62 in individual animals: one animal per table line (suffix of Exposure label = animal number), negative value = underexpression
[2] = tested on: Anks4b; test: Expression level of marker gene Anks4b in liver of mice exposed for 7 days (microarray); conditions: mouse liver, 7 days exposure; for Average Fold Changes of the expression level of marker gene Anks4b: average of 3 - 4 independent repeat experiments, negative value = underexpression (negative inverse of Ratio), dose and route per compound in Table 8; for Fold Change of expression of Anks4b in individual animals: one animal per table line (suffix of Exposure label = animal number), negative value = underexpression
[3] = tested on: Zbtb16; test: Expression level of marker gene Zbtb16 in liver of mice exposed for 7 days (microarray); conditions: mouse liver, 7 days exposure; for Average Fold Changes of the expression level of marker gene Zbtb16: average of 3 - 4 independent repeat experiments, negative value = underexpression (negative inverse of Ratio), dose and route per compound in Table 8; for Fold Change of expression of Zbtb16 in individual animals: one animal per table line (suffix of Exposure label = animal number), negative value = underexpression
[4] = tested on: Cyp17a1; test: Expression level of marker gene Cyp17a1 in liver of mice exposed for 7 days (microarray); conditions: mouse liver, 7 days exposure; for Average Fold Changes of the expression level of marker gene Cyp17a1: average of 3 - 4 independent repeat experiments, negative value = underexpression (negative inverse of Ratio), dose and route per compound in Table 8; for Fold Change of expression of Cyp17a1 in individual animals: one animal per table line (suffix of Exposure label = animal number), negative value = underexpression
[5] = tested on: LOC75771; test: Expression level of marker gene LOC75771 in liver of mice exposed for 7 days (microarray); conditions: mouse liver, 7 days exposure; for Average Fold Changes of the expression level of marker gene LOC75771: average of 3 - 4 independent repeat experiments, negative value = underexpression (negative inverse of Ratio), dose and route per compound in Table 8; for Fold Change of expression of LOC75771 in individual animals: one animal per table line (suffix of Exposure label = animal number), negative value = underexpression
[6] = tested on: 9030619P08Rik; test: Expression level of marker gene 9030619P08Rik in liver of mice exposed for 7 days (microarray); conditions: mouse liver, 7 days exposure; for Average Fold Changes of the expression level of marker gene 9030619P08Rik: average of 3 - 4 independent repeat experiments, negative value = underexpression (negative inverse of Ratio), dose and route per compound in Table 8; for Fold Change of expression of 9030619P08Rik in individual animals: one animal per table line (suffix of Exposure label = animal number), negative value = underexpression

Compound	Average Fold Changes of the expression level of marker gene Nup62 [1]	Fold Change of expression of Nup62 in individual animals [1]	Average Fold Changes of the expression level of marker gene Anks4b [2]	Fold Change of expression of Anks4b in individual animals [2]	Average Fold Changes of the expression level of marker gene Zbtb16 [3]	Fold Change of expression of Zbtb16 in individual animals [3]	Average Fold Changes of the expression level of marker gene Cyp17a1 [4]	Fold Change of expression of Cyp17a1 in individual animals [4]	Average Fold Changes of the expression level of marker gene LOC75771 [5]	Fold Change of expression of LOC75771 in individual animals [5]	Average Fold Changes of the expression level of marker gene 9030619P08Rik [6]	Fold Change of expression of 9030619P08Rik in individual animals [6]
CC/C(=C(/CC)c1ccc(O)cc1)c1ccc(O)cc1 [NGTXC_DES, Diethylstillbestrol]	-1,07	-1,56356 and 1,18178 and -1,04186 and 1,041463	-1,02	1,020605 and 1,193296 and -1,09903 and -1,20697	-1,15	-1,72326 and 1,430939 and 1,400903 and -2,03597	10,74	9,417864 and 18,44632 and 6,256012 and 12,22566	-1,06	-1,13239 and -1,07708 and 1,027336 and -1,04436	8,00	3,399244 and 17,02687 and 10,00524 and 7,062258
CCC1(c2ccccc2)C(=O)NC(=O)NC1=O [NGTXC_PBB, Phenobarbital]	1,00	-1,18737 and -1,21348 and 1,070337 and 1,356669	1,47	1,857325 and 1,468237 and 1,631778 and 1,048775	-1,59	-2,34418 and -1,15391 and -1,99396 and -1,17093	2,24	1,987088 and 1,966993 and 2,933095 and 2,191937	1,17	1,084573 and 1,085274 and 1,34375 and 1,18945	15,09	10,68519 and 17,28227 and 19,31769 and 14,53071
N.N.[Cl][Pt][Cl] [GTXC_CPPD, Cisplatin]	-1,39	-1,40437 and -1,37437 and -1,38035	1,62	1,894611 and 1,416897 and 1,570269	-3,46	-4,28606 and -2,61037 and -3,7119	-2,48	-4,49668 and -2,09626 and -1,61055	1,98	2,205733 and 1,720149 and 2,049812	1,70	1,882632 and 3,19679 and -1,23124
CCCCC(CC)COC(=O)c1ccccc1C(=O)OCC(CC)CCCC (stereo not shown) [NGTXC_DEHP, Di(2-ethylhexyl)phthalate]	1,03	1,166832 and 1,023361 and -1,1264 and 1,077398	-1,13	-1,08 and -1,18919 and 1,270926 and -1,59617	-1,19	-1,41583 and 1,601817 and -2,52071 and 1,114567	2,49	6,253363 and 1,806164 and 1,292719 and 2,626167	1,12	1,152676 and 1,339443 and 1,013056 and 1,023425	3,11	1,421539 and 3,741746 and 4,049144 and 4,353386
CC(C)(c1ccc(O)cc1)c1ccc(O)cc1 [NC_BPA, Bisphenol A]	-1,04	-1,01361 and -1,00973 and 1,14385 and -1,3266	-1,02	-1,16229 and 1,285365 and -1,14224 and -1,06695	-1,23	1,114306 and -1,6599 and 1,05274 and -1,63459	-2,45	-4,75677 and -1,01075 and -3,4994 and -2,12839	1,14	1,027932 and 1,306211 and -1,1049 and 1,370273	1,29	-1,23514 and 2,605592 and 1,167664 and 1,121763
CC(C)CCCCCCCOC(=O)c1ccccc1C(=O)OCCCCCCCC(C)C [NC_DIDP, Diisodecyl phthalate]	-1,03	1,082226 and -1,02869 and 1,206993 and -1,44589	1,17	1,254408 and -1,44863 and 1,229508 and 1,74936	-1,37	1,045284 and -1,02838 and -1,15546 and -3,11558	-1,22	-1,67941 and 2,746697 and -2,01664 and -1,81914	1,26	1,468884 and 1,270453 and 1,155297 and 1,177232	1,19	1,367458 and -2,48269 and 1,316609 and 2,807593
CCOc1ccc(NC(C)=O)cc1 [GTXC_Phe, Phenacetin]	–	-1,46978 and -1,41748 and -1,3917 and -1,33382	–	1,592469 and 1,221871 and 1,552723 and 1,512243	–	-4,26686 and -1,26966 and -2,10594 and -2,30082	1,82	1,929473 and -1,08575 and 2,976794 and 2,054986	–	1,462697 and 1,408953 and 1,858825 and 1,503018	–	2,591988 and 1,278319 and 1,436254 and 4,17095
c1ccc2c(c1)cc1ccc3cccc4ccc2c1c34 [GTXC_BaP, Benzo(a)pyrene]	-1,40	-1,46302 and -1,51176 and -1,24257 and -1,41015	1,58	2,091694 and 1,512848 and 1,249576 and 1,590135	-2,08	-2,2075 and -2,73557 and -2,65608 and -1,1713	1,59	1,069143 and -1,57076 and 2,426957 and 3,849942	1,94	2,511058 and 2,153342 and 1,654892 and 1,573528	3,08	3,463285 and 3,508919 and 1,242329 and 5,940256
CC(=O)Nc1ccc2c(c1)Cc1ccccc1-2 [GTXC_2-AAF, 2-Acetylaminofluorene]	-1,51	-1,55724 and -1,69925 and -1,3329 and -1,46527	1,87	1,655817 and 2,059207 and 2,270806 and 1,587469	-2,94	-3,61818 and -2,77847 and -3,11926 and -2,3778	-1,62	1,364397 and -2,15504 and -2,61584 and -1,66057	1,64	1,705921 and 2,011494 and 1,050507 and 1,984839	1,38	1,187438 and 1,340597 and 1,335409 and 1,684509
